How the values were obtained:
[1] = tested on: Septoria tritici; assay: Septoria tritici (leaf blotch), PDB microtiter plate, visual after 72 hrs; type: cell-based; conditions: Zymoseptoria tritici, single compound; for inhibition at 0.25 ppm: read-out: Activity (%)
[2] = tested on: Gaeumannomvces graminis; assay: Gaeumannomvces graminis (take-all of cereals), PDB microtiter plate, visual after 48 hrs; type: cell-based; conditions: solo; for inhibition at 0.015625 ppm: rate 0.015625 ppm
Excerpt: In the following Tables ‘Activity (%)’ means the assessed experimental activity (% disease control in this test when compared to untreated control leaf disks under the same conditions, which show extensive disease development) and “P” is the expected value calculated (expected) activity according to the COLBY formula (see above). The column headed ‘S?’ indicates whether or not synergy was observed, with ‘y’ meaning that synergy was observed. Gaeumannomvces graminis (Take-all of Cereals) Mycelial fragments of the fungus from cryogenic storage were directly mixed into nutrient broth (PDB potato dextrose broth). After placing a (DMSO) solution of the test compounds into a microtiter plate (96-well format) the nutrient broth containing the fungal spores was added.

[3] = tested on: Pyrenophora teres; assay: Pyrenophora teres / barley / leaf disc preventative (net blotch); type: in vivo; conditions: foliar, compared to untreated control leaf disks, read-out: disease control
Excerpt: Pyrenophora teres/Barley/Leaf Disc Preventative (Net Blotch) Barley leaf segments cv. Hasso were placed on agar in a multiwell plate (24-well format) and sprayed with the formulated test compound diluted in water. The leaf segments were inoculated with a spore suspension of the fungus 2 days after application.

[4] = tested on: Pythium ultimum; assay: Pythium ultimum (damping off), PDB microtiter plate, visual after 48 hrs; type: cell-based; conditions: Globisporangium ultimum, solo

| SMILES | inhibition at 0.00390625 ppm [1] [%] | inhibition at 0.0078125 ppm [1] [%] | inhibition at 0.015625 ppm [1] [%] | inhibition at 0.03125 ppm [1] [%] | inhibition at 0.0625 ppm [1] [%] | inhibition at 0.125 ppm [1] [%] | inhibition at 0.25 ppm [1] [%] | inhibition at 0.5 ppm [1] [%] | inhibition at 1 ppm [1] [%] | inhibition at 2 ppm [1] [%] | inhibition at 0.015625 ppm [2] [%] | other results |
| --- | --- | --- | --- | --- | --- | --- | --- | --- | --- | --- | --- | --- |
| CCN(C)/C=N/c1cc(Br)c(OC(C)c2cc(F)cc(F)c2)nc1C (stereo not shown) [Q.113] | 0 | 0 | 0 | 0 | 0 | 0 | 0 | 0 | 0 | 0 | 0 | inhibition at 0.03125 ppm ([2]; rate 0.03125 ppm): 0%; inhibition at 0.0625 ppm ([2]; rate 0.0625 ppm): 0%; inhibition at 0.125 ppm ([2]; rate 0.125 ppm): 0%; inhibition at 0.25 ppm ([2]; rate 0.25 ppm): 0% |
| CCN(C)/C=N/c1cc(Br)c(OC2Cc3ccccc3C2)nc1C [Q.062] | 0 | 0 | 0 | 0 | 0 | 0 | 0 | 0 | 0 | 0 | 0 | pest or weed control at 200 ppm [3]: ≥ 50%; inhibition at 0.00390625 ppm ([2]; rate 0.00390625 ppm): 0%; inhibition at 0.0078125 ppm ([2]; rate 0.0078125 ppm): 0% |
| CCN(C)/C=N/c1cc(Br)c(O[C@H]2CC[C@@H](C(C)C)CC2)nc1C [Q.135] | 0 | 0 | 0 | 0 | 0 | 0 | 0 | 0 | 0 | 0 |  | inhibition at 0.0078125 ppm ([4]; rate 0.0078125 ppm): 0%; inhibition at 0.015625 ppm ([4]; rate 0.015625 ppm): 0%; inhibition at 0.03125 ppm ([4]; rate 0.03125 ppm): 0%; inhibition at 0.0625 ppm ([4]; rate 0.0625 ppm): 0% |
